The NIST ThermoML archive (doi:10.1021/je8008254)

Assay: xn = mol fraction of the nth substance listed
Settings: 101 kPa, Liquid

CCCCn1cc[n+](C)c1.N#C[S-] [1-butyl-3-methylimidazolium thiocyanate] + CCCO
Settings | mass density [kg/m3] | viscosity [mPa·s]
298.15 K, x1 = 0.0267 | 819.06 | 2.26
298.15 K, x1 = 0.0833 | 854.16 | 2.87
298.15 K, x1 = 0.1849 | 903.16 | 4.27
298.15 K, x1 = 0.2538 | 930.41 | 5.34
298.15 K, x1 = 0.3429 | 959.02 | 7.42
298.15 K, x1 = 0.4577 | 988.94 | 10.9
298.15 K, x1 = 0.5868 | 1015.47 | 16.7
298.15 K, x1 = 0.6791 | 1030.55 | 20.5
298.15 K, x1 = 0.805 | 1048.14 | 25.8
298.15 K, x1 = 0.9342 | 1062.97 | 38.6
298.15 K, x1 = 1 | 1069.79 | 51.7
308.15 K, x1 = 0.0267 | 811.18 | 1.8
308.15 K, x1 = 0.0833 | 846.63 | 2.3
308.15 K, x1 = 0.1849 | 895.99 | 3.39
308.15 K, x1 = 0.2538 | 923.49 | 4.21
308.15 K, x1 = 0.3429 | 952.34 | 5.71
308.15 K, x1 = 0.4577 | 982.5 | 8.22
308.15 K, x1 = 0.5868 | 1009.21 | 12.3
308.15 K, x1 = 0.6791 | 1024.39 | 14.8
308.15 K, x1 = 0.805 | 1042.09 | 18.1
308.15 K, x1 = 0.9342 | 1057.02 | 26.2
308.15 K, x1 = 1 | 1063.89 | 34.9
318.15 K, x1 = 0.0267 | 803.18 | 1.46
318.15 K, x1 = 0.0833 | 839 | 1.87
318.15 K, x1 = 0.1849 | 888.81 | 2.75
318.15 K, x1 = 0.2538 | 916.58 | 3.4
318.15 K, x1 = 0.3429 | 945.66 | 4.49
318.15 K, x1 = 0.4577 | 976.07 | 6.43
318.15 K, x1 = 0.5868 | 1003.01 | 9.37
318.15 K, x1 = 0.6791 | 1018.27 | 11.2
318.15 K, x1 = 0.805 | 1036.08 | 13.4
318.15 K, x1 = 0.9342 | 1051.09 | 18.7
318.15 K, x1 = 1 | 1058.02 | 24.2
328.15 K, x1 = 0.0267 | 795 | 1.2
328.15 K, x1 = 0.0833 | 831.26 | 1.55
328.15 K, x1 = 0.1849 | 881.57 | 2.27
328.15 K, x1 = 0.2538 | 909.63 | 2.8
328.15 K, x1 = 0.3429 | 939 | 3.6
328.15 K, x1 = 0.4577 | 969.67 | 5.1
328.15 K, x1 = 0.5868 | 996.84 | 7.3
328.15 K, x1 = 0.6791 | 1012.18 | 8.7
328.15 K, x1 = 0.805 | 1030.11 | 10.4
328.15 K, x1 = 0.9342 | 1045.22 | 14
328.15 K, x1 = 1 | 1052.19 | 16.7
338.15 K, x1 = 0.0267 | 786.6 | 1
338.15 K, x1 = 0.0833 | 823.39 | 1.3
338.15 K, x1 = 0.1849 | 874.27 | 1.9
338.15 K, x1 = 0.2538 | 902.7 | 2.35
338.15 K, x1 = 0.3429 | 932.34 | 3.01
338.15 K, x1 = 0.4577 | 963.3 | 4.18
338.15 K, x1 = 0.5868 | 990.7 | 5.89
338.15 K, x1 = 0.6791 | 1006.14 | 6.97
338.15 K, x1 = 0.805 | 1024.2 | 8.19
338.15 K, x1 = 0.9342 | 1039.4 | 10.9
338.15 K, x1 = 1 | 1046.43 | 12.7
348.15 K, x1 = 0.0267 | 777.98 | 0.848
348.15 K, x1 = 0.0833 | 815.39 | 1.1
348.15 K, x1 = 0.1849 | 866.94 | 1.62
348.15 K, x1 = 0.2538 | 895.73 | 2
348.15 K, x1 = 0.3429 | 925.71 | 2.56
348.15 K, x1 = 0.4577 | 956.97 | 3.46
348.15 K, x1 = 0.5868 | 984.6 | 4.81
348.15 K, x1 = 0.6791 | 1000.13 | 5.64
348.15 K, x1 = 0.805 | 1018.32 | 6.62
348.15 K, x1 = 0.9342 | 1033.61 | 8.69
348.15 K, x1 = 1 | 1040.7 | 9.98
